In patent US11465965B2, “Double-headed protease inhibitor” (UBE INDUSTRIES, LTD., priority 2017, dated 2022) one finds inhibition data, which are given here for nine molecules.

Structures can show the parent of a compound that is named as a salt.

The target of assay [1] is T1, Human recombinant enteropeptidase (Homo sapiens, UniProt P98073).
T1 construct: purchased BIO Vision Inc. 7529-50
The assay is described as follows: Human enteropeptidase inhibition test. It is filed as biochemical. As to conditions: 20 minutes after reaction start, read-out: Inhibition rate (enteropeptidase); for inhibition at 0.1 µM: compound concentration 100 nM; for inhibition at 0.01 µM: compound concentration 10 nM. Here is the method:
(Test Example 1): Human Enteropeptidase Inhibition Test
Human recombinant enteropeptidase (manufactured by BIO Vision Inc., catalog no.: 7529-50) was diluted with an assay buffer (50 mM tricine (pH8.0), 0.01 W/V % Tween 20, 10 mM CaCl2) to prepare an […] enzyme solution. Then, 5FAM-Abu-Gly-Asp-Asp-Lys-Ile-Val-Gly-Gly-Lys (CPQ2)-Lys-Lys-NH2 (manufactured by CHINESE PEPTIDE COMPANY, purity: 94.5) was diluted with the assay buffer to prepare a 1.5 μM substrate solution. Each test compound was dissolved into DMSO, then diluted with the assay buffer 100 times, and further appropriately diluted with an assay buffer comprising 1% DMSO to prepare each compound solution. 10 μL of the compound solution, 15 μL of the assay buffer, and 50 μL of the substrate solution were added to a 96 well black plate (manufactured by Thermo Fisher Scientific Inc., code no.: 9502867), mixed, then 25 μL of the enzyme solution was added thereto, and mixed to start the reaction. Fluorescence intensities at excitation wavelength 485 nm and fluorescence wavelength 535 nm were measured by using a fluorescence plate reader (Flex station 3) (Test compound addition group). Also, the same reaction as described above except for not adding each test compound was carried out (Test compound non-addition group). Additionally, the same reaction as described above except for not adding each test compound and the enzyme was carried out (Control group). Inhibition rate was calculated by the following equation using fluorescence intensity after 20 minutes of reaction start. Inhibition rate (%)=(1−(fluorescence intensity of Test compound addition group−fluorescence intensity of Control group)÷(fluorescence intensity of Test compound non-addition group−fluorescence intensity of Control group))×100

Assay [2] deals with T2, Human recombinant trypsin (Homo sapiens, UniProt P07477).
T2 construct: purchased Wako Pure Chemical Industries, Ltd. 206-17171
Description: Human trypsin inhibition test. It is filed as biochemical. Particulars: 20 minutes after reaction start, read-out: Inhibition rate (trypsin); for inhibition at 0.1 µM: compound concentration 100 nM; for inhibition at 0.001 µM: compound concentration 1 nM; for inhibition at 0.01 µM: compound concentration 10 nM. Here is the method:
(Test Example 2): Human Trypsin Inhibition Test
Human recombinant trypsin (manufactured by Wako Pure Chemical Industries, Ltd., code no.: 206-17171) was diluted with an assay buffer (0.1 M Tris-HCl (pH8.0), 0.15 M NaCl, 10 mM CaCl2, 0.05% Brij35) to prepare a 10 ng/mL enzyme solution. Then, Boc-Phe-Ser-Arg-MCA (manufactured by PEPTIDE INSTITUTE, INC., code no.: 3107-v) was diluted with the assay buffer to prepare a 40 μM substrate solution. Each test compound was dissolved into DMSO, then diluted with the assay buffer 100 times, and further appropriately diluted with an assay buffer comprising 1% DMSO to prepare each compound solution. 10 μL of the compound solution, 15 μL of the assay buffer, and 50 μL of the substrate solution were added to a 96 well black plate (manufactured by Thermo Fisher Scientific Inc., code no.: 9502867), mixed, and then 25 μL of the enzyme solution was added thereto, and mixed to start the reaction. Fluorescence intensities at excitation wavelength 355 nm and fluorescence wavelength of 460 nm were measured by using a fluorescence plate reader (Flex station 3) (Test compound addition group). Also, the same reaction as described above except for not adding each test compound was carried out (Test compound non-addition group). Additionally, the same reaction as described above except for not adding each test compound and the enzyme was carried out (Control group). Inhibition rate was calculated by the following equation using fluorescence intensity after 20 minutes of reaction start. Inhibition rate (%)=(1−(fluorescence intensity of Test compound addition group−fluorescence intensity of Control group)[…](fluorescence intensity of Test compound non-addition group−fluorescence intensity of Control group))×100

T1 sequence (P98073 whole entry): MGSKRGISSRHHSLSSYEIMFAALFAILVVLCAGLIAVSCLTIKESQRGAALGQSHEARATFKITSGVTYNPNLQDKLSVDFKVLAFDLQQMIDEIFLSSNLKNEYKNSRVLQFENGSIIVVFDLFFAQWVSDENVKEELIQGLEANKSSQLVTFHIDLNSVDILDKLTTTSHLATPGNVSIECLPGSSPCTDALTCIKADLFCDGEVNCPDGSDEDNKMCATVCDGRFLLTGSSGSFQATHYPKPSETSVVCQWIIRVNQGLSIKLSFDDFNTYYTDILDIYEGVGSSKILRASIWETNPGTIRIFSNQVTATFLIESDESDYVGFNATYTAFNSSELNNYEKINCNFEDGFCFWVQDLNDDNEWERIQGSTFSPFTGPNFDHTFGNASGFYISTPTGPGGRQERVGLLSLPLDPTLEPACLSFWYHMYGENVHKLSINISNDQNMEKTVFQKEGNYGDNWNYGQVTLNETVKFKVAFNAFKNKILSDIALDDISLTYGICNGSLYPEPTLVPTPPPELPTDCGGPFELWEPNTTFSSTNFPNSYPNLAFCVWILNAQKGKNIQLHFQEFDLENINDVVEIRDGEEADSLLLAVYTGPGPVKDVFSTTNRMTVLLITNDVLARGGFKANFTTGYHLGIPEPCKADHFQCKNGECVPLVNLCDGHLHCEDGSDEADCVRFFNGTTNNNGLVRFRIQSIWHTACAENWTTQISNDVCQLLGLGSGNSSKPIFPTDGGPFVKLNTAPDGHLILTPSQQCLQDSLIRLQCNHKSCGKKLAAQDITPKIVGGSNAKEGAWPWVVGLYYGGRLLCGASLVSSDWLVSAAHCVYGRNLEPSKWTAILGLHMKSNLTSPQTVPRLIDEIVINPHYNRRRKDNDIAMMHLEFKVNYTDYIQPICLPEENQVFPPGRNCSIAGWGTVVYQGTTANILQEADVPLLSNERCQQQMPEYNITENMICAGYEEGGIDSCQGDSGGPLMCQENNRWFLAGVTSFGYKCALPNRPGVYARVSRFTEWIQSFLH

Broadly, the inhibition is how much of the control response was suppressed. In the case of `N=C(N)Nc1ccc(C(=O)Oc2ccc(COC(=O)N[C@@H](CC(=O)O)C(=O)O)cc2)cc1` [Reference Example 31-(b), (5)-2-((((4-((4-guanidinobenzoyl)oxy)benzyl)oxy)carbonyl)amino)succinic acid trifluoroacetate], the inhibition at 0.1 µM in assay [1] and in assay [2] was at least 50% throughout.

Regarding `N=C(N)Nc1ccc(C(=O)Oc2ccc(COC(=O)NC(CC(=O)O)C(=O)N[C@@H](CC(=O)O)C(=O)O)cc2)cc1` (stereo partly drawn) [Reference Example 41-(b), (2S)-2-(3-carboxy-2-((((4-((4-guanidinobenzoyl)oxy)benzyl)oxy)carbonyl)amino)propaneamine)succinic acid trifluoroacetate], the inhibition at 0.1 µM in assay [1] and in assay [2] was at least 50% throughout.

Take `CN(Cc1ccc(OC(=O)c2ccc(NC(=N)N)cc2)cc1)S(=O)(=O)N(CCOCCOCCN([C@@H](CC(=O)O)C(=O)O)S(=O)(=O)N(C)Cc1ccc(OC(=O)c2ccc(NC(=N)N)cc2)cc1)[C@@H](CC(=O)O)C(=O)O` [22-(a), (2S,13S)-3,12-bis(N-(4-((4-guanidinobenzoyl)oxy)benzyl)-N-methylsulfamoyl)-6,9-dioxa-3,12-diazatetradecane-1,2,13,14-tetracarboxylic acid trifluoroacetate]: the inhibition at 0.001 µM in assay [1] (compound concentration 1 nM) was at least 50%. Further, in assay [1], the inhibition at 0.01 µM is at least 50%. In addition, in assay [2], the inhibition at 0.001 µM was at least 50%, the inhibition at 0.01 µM is at least 50% and the inhibition at 0.1 µM is at least 50%.

For `N=C(N)Nc1ccc(C(=O)Oc2cccc(CNS(=O)(=O)N[C@@H](CC(=O)O)C(=O)O)c2)cc1` [Reference Example 73-(b), (S)-2-((N-(3-((4-guanidinobenzoyl)oxy)benzyl)sulfamoyl)amino)succinic acid trifluoroacetate], the inhibition at 0.1 µM in assay [1] and in assay [2] was at least 50% throughout.

For the molecule `N=C(N)Nc1ccc(C(=O)Oc2ccc(CNS(=O)(=O)N(Cc3cccc(C(=O)O)c3)[C@@H](CC(=O)O)C(=O)O)cc2)cc1` [Reference Example 52-(b), (S)-2-((3-carboxybenzyl)(N-(4-((4-guanidinobenzoyl)oxy)benzyl)sulfamoyl)amino)succinic acid trifluoroacetate], the inhibition at 0.1 µM in assay [1] and in assay [2] was at least 50% in each case.

In the case of `N=C(N)Nc1ccc(C(=O)Oc2ccc(CNS(=O)(=O)N[C@@H](CC(=O)O)C(=O)O)cc2)cc1` [Reference Example 55-(b), (S)-2-((N-(4-((4-guanidinobenzoyl)oxy)benzyl)sulfamoyl)amino)succinic acid], the inhibition at 0.1 µM in assay [1] and in assay [2] was at least 50% each time.

Turning to `N=C(N)Nc1ccc(C(=O)Oc2cccc(C(=O)N[C@@H](CC(=O)O)C(=O)O)c2)cc1` [Reference Example 87-(d), (S)-2-(3-((4-guanidinobenzoyl)oxy)benzamide)succinic acid], the inhibition at 0.1 µM in assay [1] and in assay [2] was at least 50% each time.

Turning to `N=C(N)Nc1ccc(C(=O)Oc2ccc(CNS(=O)(=O)N(CCOCCOCCN(C(CC(=O)O)CC(=O)O)S(=O)(=O)NCc3ccc(OC(=O)c4ccc(NC(=N)N)cc4)cc3)C(CC(=O)O)CC(=O)O)cc2)cc1` [23-(c), 3,3′-(((ethane-1,2-diylbis(oxy))bis(ethane-2,1-diyl))bis((N-(4-((4-guanidinobenzoyl)oxy)benzyl)sulfamoyl)azanediyl))dipentanedioic acid], in assay [1], the inhibition at 0.01 µM was at least 50% and the inhibition at 0.1 µM was at least 50%. In assay [2], the inhibition at 0.001 µM was at least 50%, the inhibition at 0.01 µM was at least 50% and the inhibition at 0.1 µM is at least 50%.

Take `N=C(N)Nc1ccc(C(=O)Oc2ccc(COC(=O)N(Cc3cccc(C(=O)O)c3)[C@@H](CC(=O)O)C(=O)O)cc2)cc1` [Reference Example 49-(b), (S)-2-(3-carboxybenzyl) (((4-((4-guanidinobenzoyl)oxy)benzyl)oxy)carbonyl)amino)succinic acid trifluoroacetate]: the inhibition at 0.1 µM in assay [1] and in assay [2] was at least 50% throughout.
